# Measured values published in ChEMBL document CHEMBL1126835, “QSAR's from similarity matrices. Technique validation and application in the comparison of different similarity evaluation methods” (J Med Chem, 1993).
# What was measured:
# Monoamine oxidase = target: T1, Monoamine oxidase (Homo sapiens, UniProt P21397+P27338); experiment: Binding affinity towards monoaminooxidase Relative to MPTP; type: protein assay
# T1 sequence (P21397 whole entry): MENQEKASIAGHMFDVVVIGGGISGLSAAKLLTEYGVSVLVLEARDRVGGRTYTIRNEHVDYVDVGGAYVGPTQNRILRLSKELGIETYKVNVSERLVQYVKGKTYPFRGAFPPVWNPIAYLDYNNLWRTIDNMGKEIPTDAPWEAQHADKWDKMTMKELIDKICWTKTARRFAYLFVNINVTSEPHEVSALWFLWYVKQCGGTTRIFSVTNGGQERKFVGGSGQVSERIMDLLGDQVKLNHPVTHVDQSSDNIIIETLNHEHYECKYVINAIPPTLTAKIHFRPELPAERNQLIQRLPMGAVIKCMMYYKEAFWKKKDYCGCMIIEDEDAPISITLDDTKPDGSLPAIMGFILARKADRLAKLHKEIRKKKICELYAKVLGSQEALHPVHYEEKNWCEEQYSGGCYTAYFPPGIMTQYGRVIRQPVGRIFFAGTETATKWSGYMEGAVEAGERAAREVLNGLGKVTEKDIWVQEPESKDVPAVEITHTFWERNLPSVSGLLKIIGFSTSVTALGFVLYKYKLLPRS
# T1 sequence (P27338 whole entry): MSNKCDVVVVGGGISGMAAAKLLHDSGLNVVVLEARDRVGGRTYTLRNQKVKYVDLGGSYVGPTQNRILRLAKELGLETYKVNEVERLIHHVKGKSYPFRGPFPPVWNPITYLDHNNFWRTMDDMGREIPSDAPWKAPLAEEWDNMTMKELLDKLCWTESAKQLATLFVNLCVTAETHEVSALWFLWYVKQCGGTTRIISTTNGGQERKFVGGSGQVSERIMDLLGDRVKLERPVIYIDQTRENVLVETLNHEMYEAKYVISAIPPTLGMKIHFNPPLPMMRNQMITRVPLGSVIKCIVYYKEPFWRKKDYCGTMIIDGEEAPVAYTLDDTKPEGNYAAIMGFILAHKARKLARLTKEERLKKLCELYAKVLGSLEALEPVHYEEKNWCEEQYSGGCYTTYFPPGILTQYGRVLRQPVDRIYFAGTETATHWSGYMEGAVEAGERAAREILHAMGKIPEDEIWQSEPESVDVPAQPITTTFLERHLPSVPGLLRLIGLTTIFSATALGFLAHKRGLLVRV
# Gallus gallus = species on record: Gallus gallus; experiment: Tested for anti-coccidial activity; type: functional
compound,measurement,setting,value
CCC1=CCN(C)CC1,Relative activity,Monoamine oxidase,2
O=c1cnn(-c2ccc(Sc3ccc(Cl)cc3)c(Cl)c2)c(=O)[nH]1,Log 1/MEC,Gallus gallus,2.26
C1=C(c2ccccc2)CCN(CC2CC2)C1,Relative activity,Monoamine oxidase,1
O=c1cnn(-c2cccc(C(F)(F)F)c2)c(=O)[nH]1,Log 1/MEC,Gallus gallus,0.93
CCCCN1CC=C(c2ccccc2)CC1,Relative activity,Monoamine oxidase,1
O=c1cnn(-c2cc(Cl)c(S(=O)(=O)c3ccc(Cl)cc3)c(Cl)c2)c(=O)[nH]1,Log 1/MEC,Gallus gallus,2.94
CN1CC=C(Cc2ccccc2)CC1,Relative activity,Monoamine oxidase,3
CN1CCc2c([nH]c3ccccc23)C1,Relative activity,Monoamine oxidase,2
O=c1cnn(-c2ccc(C(O)c3ccc(Cl)cc3)c(Cl)c2)c(=O)[nH]1 (centres undefined),Log 1/MEC,Gallus gallus,2.26
CSc1ccc(Oc2c(C)cc(-n3ncc(=O)[nH]c3=O)cc2C)cc1C,Log 1/MEC,Gallus gallus,2.27
O=c1cnn(-c2ccc(S(=O)(=O)c3ccc(Cl)cc3)cc2)c(=O)[nH]1,Log 1/MEC,Gallus gallus,1.96
C/C(=C\CN(C)C)c1ccccc1,Relative activity,Monoamine oxidase,3
Cc1cc(-n2ncc(=O)[nH]c2=O)ccc1Oc1ccc(S(C)(=O)=O)cc1,Log 1/MEC,Gallus gallus,1.97
Cc1ccccc1C1=CCN(C)CC1,Relative activity,Monoamine oxidase,3
CN1CC=C(c2cccc(Cl)c2)CC1,Relative activity,Monoamine oxidase,3
O=c1cnn(-c2ccc(Oc3ccc(I)cc3)c(Cl)c2)c(=O)[nH]1,Log 1/MEC,Gallus gallus,1.77
COc1ccccc1C1=CCN(C)CC1,Relative activity,Monoamine oxidase,3
Clc1ccc(C2=CCNCC2)cc1,Relative activity,Monoamine oxidase,2
Cc1cc(-n2ncc(=O)[nH]c2=O)cc(Cl)c1Oc1ccc(Cl)cc1,Log 1/MEC,Gallus gallus,1.98
CC1CN(C)CC=C1c1ccccc1 (centres undefined),Relative activity,Monoamine oxidase,2
Cc1cc(-n2ncc(=O)[nH]c2=O)ccc1Oc1ccc(Cl)cc1,Log 1/MEC,Gallus gallus,0.74
O=c1cnn(-c2ccc(Cc3ccc(Cl)cc3)c(Cl)c2)c(=O)[nH]1,Log 1/MEC,Gallus gallus,1.64
COc1cccc(C2=CCN(C)CC2)c1,Relative activity,Monoamine oxidase,2
O=C(c1ccc(Cl)cc1)c1c(Cl)cc(-n2ncc(=O)[nH]c2=O)cc1Cl,Log 1/MEC,Gallus gallus,2.9
C1=C(c2ccccc2)CCNC1,Relative activity,Monoamine oxidase,3
CN1CC=C(c2cccn2C)CC1,Relative activity,Monoamine oxidase,3
Cc1cccc(C)c1C1=CCN(C)CC1,Relative activity,Monoamine oxidase,3
N#CCCC(=O)N1CC=C(c2ccccc2)CC1,Relative activity,Monoamine oxidase,1
CSc1ccc(Oc2c(C)cc(-n3ncc(=O)[nH]c3=O)cc2C)cc1,Log 1/MEC,Gallus gallus,2.25
Cc1cc(-n2ncc(=O)[nH]c2=O)cc(C)c1S(=O)(=O)c1ccc(Cl)cc1,Log 1/MEC,Gallus gallus,2.59
CC(=O)c1ccc(Sc2c(C)cc(-n3ncc(=O)[nH]c3=O)cc2Cl)cc1,Log 1/MEC,Gallus gallus,3.19
O=c1cnn(-c2ccccc2)c(=O)[nH]1,Log 1/MEC,Gallus gallus,-0.42
CN1CC=C(c2ccccc2C(F)(F)F)CC1,Relative activity,Monoamine oxidase,3
O=c1cnn(-c2ccc(Oc3ccc(Cl)cc3Cl)c(Cl)c2)c(=O)[nH]1,Log 1/MEC,Gallus gallus,1.71
O=c1cnn(-c2ccc([N+](=O)[O-])cc2)c(=O)[nH]1,Log 1/MEC,Gallus gallus,-0.03
O=c1cnn(-c2cc(Cl)c(Cc3ccc(Cl)cc3)c(Cl)c2)c(=O)[nH]1,Log 1/MEC,Gallus gallus,3.18
Fc1ccc(C2=CCNCC2)cc1,Relative activity,Monoamine oxidase,2
CSc1ccc(Oc2ccc(-n3ncc(=O)[nH]c3=O)cc2C)cc1,Log 1/MEC,Gallus gallus,2.23
Cc1cccc(C2=CCN(C)CC2)c1,Relative activity,Monoamine oxidase,3
CN1CC=C(c2cccs2)CC1,Relative activity,Monoamine oxidase,2
OCCN1CC=C(c2ccccc2)CC1,Relative activity,Monoamine oxidase,2
CCN1CC=CCC1,Relative activity,Monoamine oxidase,2
O=c1cnn(-c2ccc(Br)c(C(F)(F)F)c2)c(=O)[nH]1,Log 1/MEC,Gallus gallus,1.35
Cc1cc(-n2ncc(=O)[nH]c2=O)ccc1C(O)c1ccccc1 (centres undefined),Log 1/MEC,Gallus gallus,1.01
O=c1cnn(-c2ccc(S(=O)(=O)c3ccc(Br)cc3)cc2)c(=O)[nH]1,Log 1/MEC,Gallus gallus,1.71
O=c1cnn(-c2ccc(S(=O)(=O)c3ccccc3)cc2)c(=O)[nH]1,Log 1/MEC,Gallus gallus,1.04
CC(C)N1CC=C(c2ccccc2)CC1,Relative activity,Monoamine oxidase,1
Cc1cc(-n2ncc(=O)[nH]c2=O)cc(Cl)c1S(=O)(=O)c1ccc(Cl)cc1,Log 1/MEC,Gallus gallus,1.71
CSc1ccc(Oc2ccc(-n3ncc(=O)[nH]c3=O)cc2Cl)cc1,Log 1/MEC,Gallus gallus,1.98
Cc1cc(C)cc(-n2ncc(=O)[nH]c2=O)c1,Log 1/MEC,Gallus gallus,0.86
Cc1ccc(C2=CCN(C)CC2)cc1,Relative activity,Monoamine oxidase,2
CCCN1CC=C(c2ccccc2)CC1,Relative activity,Monoamine oxidase,1
CN1CC=C(c2ccc(F)cc2)CC1,Relative activity,Monoamine oxidase,2
COc1c(Cl)cc(-n2ncc(=O)[nH]c2=O)cc1Cl,Log 1/MEC,Gallus gallus,0.06
CN1CCC(c2ccccc2)CC1,Relative activity,Monoamine oxidase,1
O=c1cnn(-c2cc(Cl)c(S(=O)(=O)N3CCOCC3)c(Cl)c2)c(=O)[nH]1,Log 1/MEC,Gallus gallus,1.13
CN1CC=C(c2cccc(F)c2)CC1,Relative activity,Monoamine oxidase,3
O=c1cnn(-c2ccc(Sc3ccc4ccccc4c3)c(Cl)c2)c(=O)[nH]1,Log 1/MEC,Gallus gallus,0.48
O=c1cnn(-c2ccc(S(=O)(=O)N3CCOCC3)c(Cl)c2)c(=O)[nH]1,Log 1/MEC,Gallus gallus,1.09
Cc1cc(-n2ncc(=O)[nH]c2=O)cc(C)c1S(=O)(=O)N1CCOCC1,Log 1/MEC,Gallus gallus,1.39
CCN1CC=C(c2ccccc2)CC1,Relative activity,Monoamine oxidase,2
CC1=C(c2ccccc2)CCN(C)C1,Relative activity,Monoamine oxidase,2
COc1cc(OC)cc(-n2ncc(=O)[nH]c2=O)c1,Log 1/MEC,Gallus gallus,-0.3
N#CC(c1ccc(Cl)cc1)c1c(Cl)cc(-n2ncc(=O)[nH]c2=O)cc1Cl (centres undefined) [DICLAZURIL],Log 1/MEC,Gallus gallus,3.61
C=CCN1CC=C(c2ccccc2)CC1,Relative activity,Monoamine oxidase,1
Cc1cc(-n2ncc(=O)[nH]c2=O)cc(Cl)c1Sc1ccc(Cl)cc1,Log 1/MEC,Gallus gallus,3.28
Cc1cc(-n2ncc(=O)[nH]c2=O)cc(C)c1Sc1ccc(Cl)cc1 [TIAZURIL],Log 1/MEC,Gallus gallus,2.86
CCc1ccccc1C1=CCN(C)CC1,Relative activity,Monoamine oxidase,3
C1=C(c2ccccc2)CCN(Cc2ccccc2)C1,Relative activity,Monoamine oxidase,1
CN1CC=C(c2cccc(Br)c2)CC1,Relative activity,Monoamine oxidase,3
O=c1cnn(-c2cc(Cl)c(Sc3ccc(Cl)cc3)c(Cl)c2)c(=O)[nH]1,Log 1/MEC,Gallus gallus,3.3
O=c1cnn(-c2cc(Cl)cc(Cl)c2)c(=O)[nH]1,Log 1/MEC,Gallus gallus,1.81
CCN(C)S(=O)(=O)c1ccc(Oc2c(C)cc(-n3ncc(=O)[nH]c3=O)cc2Cl)c(Cl)c1,Log 1/MEC,Gallus gallus,2.11
O=c1cnn(-c2ccc(F)c(C(F)(F)F)c2)c(=O)[nH]1,Log 1/MEC,Gallus gallus,1.26
Cc1cc(Cl)cc(-n2ncc(=O)[nH]c2=O)c1,Log 1/MEC,Gallus gallus,1.2
Cc1cc(-n2ncc(=O)[nH]c2=O)cc(C)c1C(=O)c1ccc(Cl)cc1,Log 1/MEC,Gallus gallus,1.38
Cc1cc(-n2ncc(=O)[nH]c2=O)cc(Cl)c1Oc1ccc(C(C)O)cc1 (centres undefined),Log 1/MEC,Gallus gallus,2.27
Cc1cc(-n2ncc(=O)[nH]c2=O)ccc1Oc1ccc(Br)cc1,Log 1/MEC,Gallus gallus,1.7
CS(=O)(=O)c1ccc(-n2ncc(=O)[nH]c2=O)cc1,Log 1/MEC,Gallus gallus,-0.27
Cc1cc(-n2ncc(=O)[nH]c2=O)ccc1Oc1ccc(Cl)cc1Cl,Log 1/MEC,Gallus gallus,1.69
Cc1cc(-n2ncc(=O)[nH]c2=O)cc(C)c1[S+]([O-])c1ccc(Cl)cc1 (centres undefined),Log 1/MEC,Gallus gallus,2.58
N#Cc1cccc(-n2ncc(=O)[nH]c2=O)c1,Log 1/MEC,Gallus gallus,0.85
CN1CC=C(c2ccc(Cl)cc2)CC1,Relative activity,Monoamine oxidase,2
O=c1cnn(-c2ccc(Oc3ccc4cc(Br)ccc4c3)c(Cl)c2)c(=O)[nH]1,Log 1/MEC,Gallus gallus,1.77
CN1CC=C(c2ccccc2)CC1,Relative activity,Monoamine oxidase,3
COc1cc(-n2ncc(=O)[nH]c2=O)cc(OC)c1OC,Log 1/MEC,Gallus gallus,-0.55
CN1CC=C(c2ccccc2F)CC1,Relative activity,Monoamine oxidase,3
Cc1cc(-n2ncc(=O)[nH]c2=O)cc(Cl)c1Oc1ccc(S(=O)(=O)NC2CC2)cc1Cl,Log 1/MEC,Gallus gallus,1.51
O=c1cnn(-c2cccc(Cl)c2)c(=O)[nH]1,Log 1/MEC,Gallus gallus,0.25
CN1CC=C(C(C)(C)C)CC1,Relative activity,Monoamine oxidase,2
O=c1cnn(-c2ccc(Oc3ccccc3)cc2)c(=O)[nH]1,Log 1/MEC,Gallus gallus,-0.25
CN1CC=C(C2CCCCC2)CC1,Relative activity,Monoamine oxidase,3
CC(=O)c1ccc(Oc2c(C)cc(-n3ncc(=O)[nH]c3=O)cc2Cl)cc1,Log 1/MEC,Gallus gallus,2.27
CN1CC=C(c2ccccc2Cl)CC1,Relative activity,Monoamine oxidase,3
